Reference: US20260242392A1, “ARYL TRICYCLIC STING AGONISTS AND USE THEREOF” (SHENZHEN GENUINE BIOTECHNOLOGY CO., LTD., priority 2023, published 2026)

Biological target: T1, Sting-HAQ (Homo sapiens, UniProt Q86WV6, G230A/H232R/R293Q/R71H)
T1 construct: host or cells: HEK293-HAQ Luc reporter cell line
Assay: HEK293-HAQ Luc reporter gene assay (Steady-Glo luciferase)
Assay type: cell-based
Conditions: 24 h incubation; read-out: HEK293-HAQ Luc Report Assay (24 h) EC50
Description: Test Principle: The HEK293-HAQ Luc reporter cell line utilizes the chemiluminescent reaction property of luciferase binding to its substrate beetle luciferin. The regulatory elements of the Sting-HAQ gene transcription are cloned upstream/downstream of the firefly luciferase gene to construct a luciferase recombinant plasmid. The recombinant plasmid is then transfected into HEK293 cells. After treatment with compounds, the cells are lysed, and the luciferase activity is measured using the Steady-Glo® detection system (Cat #E2550) manufactured by Promega Corporation. The effect of compounds on the Sting-HAQ regulatory elements is determined based on the level of luciferase activity. The Steady Glo® Luciferase Assay System enables high-throughput evaluation of the degree of activation of reporter cell lines by compounds through the activity of luciferase in mammalian cells, and provides long-term stable luminescence when used with reporter cell lines. The detection system can sustain a signal half-life of more than 5 hours in the test cell culture medium, enabling uniform measurement without sample pretreatment.
Test Method: Complete medium (DMEM+10% FBS+1% P/S) was prepared. The Hek293-HAQ Luc reporter cell line was resuscitated and passaged twice. Cells in logarithmic growth phase were collected by centrifugation, counted, and resuspended to an appropriate concentration. The cell suspension was seeded into a 96-well plate at a density of 20000 cells/well, with 100 µL of the cell suspension added per well. Test compounds were prepared into stock solutions with DMSO, and serially diluted 3-fold with DMSO starting from the highest concentration of 100 mM to obtain 9 concentration gradients. The test compounds were diluted 47.62-fold with culture medium, and 5 μL of each dilution was added to the 96-well plate containing 100 μL of cells. To Min control wells were added 5 μL of DMSO-cell culture medium mixture (with a final DMSO concentration of 0.1%), while Max control wells received 5 μL of a positive reference compound. The plate was incubated at 37° C. in an incubator with 5% carbon dioxide and relative humidity above 90% for 24 h. Subsequently, 75 μL/well of […] was added to terminate the reaction. After shaking at 305 rpm for 10 min, the plates were detected on Envision. The […] value RLU of each well was read, and the activation rate was calculated according to the formula: Activation %=(Sample−Ave_L)/(Ave_H−Ave_L)×100, where Ave_L: RLU Min (0.1% DMSO), Ave_H: RLU Max (positive reference compound). The activation rate, Activation % (Y), corresponding to each concentration (X), was entered in EXCEL. The half-maximal effective concentration EC50 value of each compound was calculated according to the built-in four-parameter fitting formula Y=Bottom+(Top−Bottom)/(1+10^((LogEC50−X)*HillSlope)) using the XLfit plug-in.

T1 sequence (Q86WV6 whole entry R71H/G230A/H232R/R293Q): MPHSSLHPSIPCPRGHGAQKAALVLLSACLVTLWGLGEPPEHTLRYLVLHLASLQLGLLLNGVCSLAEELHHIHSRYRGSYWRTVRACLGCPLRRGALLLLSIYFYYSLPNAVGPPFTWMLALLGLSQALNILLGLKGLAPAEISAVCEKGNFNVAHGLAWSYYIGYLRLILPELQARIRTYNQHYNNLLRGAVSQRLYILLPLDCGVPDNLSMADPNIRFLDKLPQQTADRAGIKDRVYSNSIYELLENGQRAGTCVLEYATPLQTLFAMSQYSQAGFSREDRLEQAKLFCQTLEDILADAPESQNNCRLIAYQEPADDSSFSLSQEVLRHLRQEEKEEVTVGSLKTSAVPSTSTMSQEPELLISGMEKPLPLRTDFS

| Structure (SMILES) | EC50 [µM] |
| --- | --- |
| O=C(O)CCC(=O)c1cc2c(ccc3[nH]ncc32)s1 | > 100 |
| C[Si](C)(C)CCOCn1cc2c(ccc3sc(C(=O)CCC(=O)O)cc32)n1 | > 100 |
| Cn1ncc2c3cc(C(=O)CCC(=O)O)sc3ccc21 | > 100 |
| Cn1cc2c(ccc3sc(C(=O)CCC(=O)O)cc32)n1 | 41.8 |
| CCc1nc2c(o1)c(OC)cc1sc(C(=O)CCC(=O)O)cc12 | 36 |
| COc1cc2sc(C(=O)CCC(=O)O)c(C)c2c2ncoc12 | 58 |
| COc1cc2sc(C(=O)CC(C)C(=O)O)c(C)c2c2ncoc12 (stereo not shown) | 92 |
| COc1cc2sc(C(=O)CCC(=O)O)cc2c2nc(C3CC3)oc12 | 90.7 |
| COc1cc2sc(C(=O)CC(C)C(=O)O)cc2c2ccoc12 (stereo not shown) | 2.2 |
| COc1cc2sc(C(=O)CC(C)C(=O)O)cc2c2cc(C)oc12 (stereo not shown) | 1.2 |
| COc1cc2sc(C(=O)CCC(=O)O)c(C)c2c2nc(N)oc12 | > 100 |
| COc1cc2sc(C(=O)CCC(=O)O)cc2c2c1ncn2C | > 100 |
| COc1cc2sc(C(=O)CCC(=O)O)cc2c2ncn(C)c12 | > 100 |
| COc1cc2sc(C(=O)CCC(=O)O)cc2c2cnoc12 | > 100 |
| COc1cc2sc(C(=O)CCC(=O)O)cc2c2ccn(C)c12 | > 100 |
| COc1cc2sc(C(=O)C[C@@H](C)C(=O)O)cc2c2ncoc12 | 5.81 |
| COc1cc2sc(C(=O)CCC(=O)O)cc2c2c1CCC2 | > 100 |

| Structure (SMILES) | EC50 [µM] |
| --- | --- |
| COc1cc2sc(C(=O)CCC(=O)O)cc2c2ccsc12 | 10.7 |
| COc1cc2sc(C(=O)CC(C)C(=O)O)nc2c2nc(C)oc12 (stereo not shown) | 3.32 |
| COc1cc2sc(C(=O)C(C)CC(=O)O)nc2c2nc(C)oc12 (stereo not shown) | 59.9 |
| COc1cc2sc(C(=O)CC(C)C(=O)O)cc2c2cc(F)oc12 (stereo not shown) | 0.57 |
| COc1cc2sc(C(=O)C[C@@H](C)C(=O)O)nc2c2nc(C)oc12 | 67.7 |
| CCC(CC(=O)c1cc2c(cc(OC)c3oc(F)cc32)s1)C(=O)O (stereo not shown) | 0.823 |
| CC[C@H](CC(=O)c1cc2c(cc(OC)c3oc(F)cc32)s1)C(=O)O | 4.1 |
| [2H]C([2H])([2H])Oc1cc2sc(C(=O)C[C@H](C)C(=O)O)cc2c2cc(F)oc12 | 0.263 |
| COc1cc2cc(C(=O)CCC(=O)O)sc2cc1OC [MAS-2, reference compound] | 2.59 |
| COc1cc2sc(C(=O)CCC(=O)O)cc2c2ncoc12 [drawing 622] | 1.23 |
| COc1cc2sc(C(=O)CCC(=O)O)cc2c2nc(C)oc12 [drawing 626] | 1.58 |
| COc1cc2sc(C(=O)CC(C)C(=O)O)cc2c2ncoc12 (stereo not shown) [drawing 631] | 1.12 |
| COc1cc2sc(C(=O)C[C@H](C)C(=O)O)cc2c2ncoc12 [drawing 651] | 0.16 |
| CC[C@@H](CC(=O)c1cc2c(cc(OC)c3ocnc32)s1)C(=O)O [drawing 659] | 0.302 |
| COc1cc2sc(C(=O)C[C@H](C)C(=O)O)cc2c2cc(C)oc12 [drawing 660] | 0.341 |
| COc1cc2sc(C(=O)C[C@H](C)C(=O)O)cc2c2cc(F)oc12 [drawing 673] | 0.465 |
| COc1cc2sc(C(=O)C[C@H](C)C(=O)O)cc2c2c(F)c(C)oc12 [drawing 678] | 0.19 |

More lines, now with the values ahead:

| EC50 [µM] | Structure (SMILES) |
| --- | --- |
| > 100 | C[Si](C)(C)CCOCn1ncc2c3cc(C(=O)CCC(=O)O)sc3ccc21 |
| 7.87 | COc1cc2sc(C(=O)CCC(=O)O)cc2c2c1OCC2 |
| > 100 | COc1cc2sc(C(=O)CCC(=O)O)cc2c2c1OCCO2 |
| > 100 | COc1cc2sc(C(=O)CCC(=O)O)cc2c2nc(C(C)C)oc12 |
| 2.52 | COc1cc2sc(C(=O)CCC(=O)O)cc2c2ccoc12 |
| > 100 | COc1cc2sc(C(=O)CC(C)C(=O)O)c(C)c2c2nc(N)oc12 (stereo not shown) |
| 29.8 | COc1cc2sc(C(=O)CCC(=O)O)c(C)c2c2ccoc12 |
| > 100 | COc1cc2sc(C(=O)CCC(=O)O)cc2c2cnn(C)c12 |
| 1.04 | COc1cc2sc(C(=O)CCC(=O)O)cc2c2cc(C)oc12 |
| 19 | COc1cc2sc(C(=O)CCC(=O)O)c(C)c2c2cc(C)oc12 |
| 0.308 | CCC(CC(=O)c1cc2c(cc(OC)c3ocnc32)s1)C(=O)O (stereo not shown) |
| > 100 | COc1cc2sc(C(=O)CCC(=O)O)cc2c2nc[nH]c12 |
| 49 | COc1cc2sc(C(=O)CCC(=O)O)cc2c2cn(C)nc12 |
| > 100 | COc1cc2sc(C(=O)CCC(=O)O)cc2c2nc(N)oc12 |
| > 100 | COc1cc2sc(C(=O)CC(C)C(=O)O)cc2c2nc(N)oc12 (stereo not shown) |
| 2.5 | COc1cc2sc(C(=O)CCC(=O)O)cc2c2ocnc12 |
| 0.792 | COc1cc2sc(C(=O)CCC(=O)O)cc2c2cc(F)oc12 |
| 0.979 | CCC(CC(=O)c1cc2c(cc(OC)c3occc32)s1)C(=O)O (stereo not shown) |
| 0.326 | CCC(CC(=O)c1cc2c(cc(OC)c3oc(C)nc32)s1)C(=O)O (stereo not shown) |
| 0.565 | CCC(CC(=O)c1cc2c(cc(OC)c3oc(C)cc32)s1)C(=O)O (stereo not shown) |
| 18 | COc1cc2sc(C(=O)CCC(=O)O)nc2c2nc(C)oc12 |
| 4.46 | CC[C@H](CC(=O)c1cc2c(cc(OC)c3oc(C)cc32)s1)C(=O)O |
| 0.24 | CC[C@@H](CC(=O)c1cc2c(cc(OC)c3oc(C)cc32)s1)C(=O)O |
| 2.34 | COc1cc2sc(C(=O)CC(C)C(=O)O)nc2c2cc(C)oc12 (stereo not shown) |
| 4.18 | COc1cc2sc(C(=O)C[C@H](C)C(=O)O)nc2c2nc(C)oc12 |
| 6.87 | COc1cc2sc(C(=O)C[C@@H](C)C(=O)O)cc2c2cc(F)oc12 |
| 0.352 | CC[C@@H](CC(=O)c1cc2c(cc(OC)c3oc(F)cc32)s1)C(=O)O |
| 0.313 | [2H]c1c(C)oc2c(OC)cc3sc(C(=O)C[C@H](C)C(=O)O)cc3c12 |
| 1.51 | COc1cc2sc(C(=O)C[C@@H](C)C(=O)O)cc2c2c(F)c(C)oc12 |
| 29.3 | C[C@@H](CC(=O)c1cc2c(cc(O)c3oc(F)cc32)s1)C(=O)O |

Test system: not listed separately
Assay: Pharmacokinetic (PK) study in ICR mice, IV and PO
Conditions: ICR, mouse, plasma, iv, 2 mg/kg
Description: The doses for IV and PO were 2 mg/kg and 5 mg/kg, respectively. Blood was collected at different time points after IV and PO administration and placed in heparinized tubes. Plasma was separated and frozen in a −20° C. refrigerator. Plasma was processed and then analyzed by LCMS/MS. Pharmacokinetic parameters of drug administration were calculated using a non-compartmental model in WinNonlin 8.2 software.

| Structure (SMILES) | AUC(0-t) [ng·h/mL] | Vd [L/kg] | clearance [mL/min/kg] | half-life [h] |
| --- | --- | --- | --- | --- |
| COc1cc2sc(C(=O)CCC(=O)O)cc2c2ncoc12 [Compound 1, 4-(4-methoxythieno[2′,3′:5,6]benzo[1,2-d]oxazol-7-yl)-4-oxobutanoic acid] | 660 | 0.76 | 50.3 | 0.658 |
| COc1cc2sc(C(=O)CCC(=O)O)cc2c2nc(C)oc12 [Example 6, 4-(4-methoxy-2-methylthieno[2′,3′:5,6]benzo[1,2-d]oxazol-7-yl)-4-oxobutanoic acid] | 4240 | 0.264 | 7.85 | 1.11 |
| COc1cc2sc(C(=O)C[C@H](C)C(=O)O)cc2c2cc(C)oc12 [Example 32] | 3700 | 0.252 | 8.98 | 0.821 |
| COc1cc2cc(C(=O)CCC(=O)O)sc2cc1OC [MAS-2, reference compound] | 1010 | 0.343 | 33 | 0.431 |

Next, values leading:

| AUC(0-t) [ng·h/mL] | Vd [L/kg] | clearance [mL/min/kg] | half-life [h] | Structure (SMILES) |
| --- | --- | --- | --- | --- |
| 5500 | 0.191 | 6.03 | 2.35 | COc1cc2sc(C(=O)C[C@H](C)C(=O)O)cc2c2c(F)c(C)oc12 [Compound 59] |
| 4300 | 0.49 | 7.56 | 2.68 | COc1cc2sc(C(=O)C[C@H](C)C(=O)O)cc2c2cc(F)oc12 [Example 62, (S)-4-(2-fluoro-4-methoxythieno[3,2-e]benzofuran-7-yl)-2-methyl-4-oxobutanoic acid] |

Same assay, conditions: ICR, mouse, plasma, po, 5 mg/kg

| Structure (SMILES) | AUC(0-t) [ng·h/mL] | Cmax [ng/mL] | bioavailability [%] | half-life [h] |
| --- | --- | --- | --- | --- |
| COc1cc2sc(C(=O)CCC(=O)O)cc2c2ncoc12 [Compound 1, 4-(4-methoxythieno[2′,3′:5,6]benzo[1,2-d]oxazol-7-yl)-4-oxobutanoic acid] | 757 | 1270 | 47 | 1.56 |
| COc1cc2sc(C(=O)CCC(=O)O)cc2c2nc(C)oc12 [Example 6, 4-(4-methoxy-2-methylthieno[2′,3′:5,6]benzo[1,2-d]oxazol-7-yl)-4-oxobutanoic acid] | 3680 | 4280 | 42.5 | 2.64 |
| COc1cc2sc(C(=O)C[C@H](C)C(=O)O)cc2c2cc(C)oc12 [Example 32] | 3450 | 5360 | 37.4 | 0.925 |
| COc1cc2cc(C(=O)CCC(=O)O)sc2cc1OC [MAS-2, reference compound] | 1530 | 2810 | 61.2 | 1.63 |

Continued, values first:

| AUC(0-t) [ng·h/mL] | Cmax [ng/mL] | bioavailability [%] | half-life [h] | Structure (SMILES) |
| --- | --- | --- | --- | --- |
| 5180 | 7700 | 38 | 1.1 | COc1cc2sc(C(=O)C[C@H](C)C(=O)O)cc2c2c(F)c(C)oc12 [Compound 59] |
| 10200 | 10100 | 92.9 | 3.05 | COc1cc2sc(C(=O)C[C@H](C)C(=O)O)cc2c2cc(F)oc12 [Example 62, (S)-4-(2-fluoro-4-methoxythieno[3,2-e]benzofuran-7-yl)-2-methyl-4-oxobutanoic acid] |

Same assay, conditions: mouse PK, injection 2 mg/kg and oral 5 mg/kg

| clearance in vivo compared to MAS-2 | exposure in vivo compared to MAS-2 | Structure (SMILES) |
| --- | --- | --- |
| lower clearance | higher exposure | COc1cc2sc(C(=O)C[C@H](C)C(=O)O)cc2c2c(F)c(C)oc12 [Compound 59] |

Same assay, conditions: mouse PK, oral administration at 5 mg/kg

| oral availability [%] | Structure (SMILES) |
| --- | --- |
| 61.23 | COc1cc2cc(C(=O)CCC(=O)O)sc2cc1OC [MAS-2, reference compound] |
